Results reported in article PMC8582824, “Targeting DDX3X Helicase Activity with BA103 Shows Promising Therapeutic Effects in Preclinical Glioblastoma Models” (Cancers, 2021).

What was measured:
[1] = Parallel artificial membrane permeability assay (PAMPA); type: in vitro ADME; conditions: for Papp at 5 h, 0.5 mM: pH 7.4, read-out: AppP (apparent permeability)
Protocol: (§1) Preliminary in vitro ADME analysis was performed to early evaluate the pharmacokinetic (PK) profile of our compounds (Figure 8). Aqueous solubility was calculated by LC-MS-MS analysis. An aliquot of 1 mg of compound was stirred for 24 h at 27 °C in 1 mL of water. The mixture was filtered, and the quantity of solubilized compound was determined. Passive permeability was determined using parallel artificial membrane permeability assay (PAMPA). Microsomal metabolic stability was determined by LC-UV-MS analysis by incubating compounds with human liver microsomes at 37 °C for 60 min (for details, see the Supporting Information).
Chemicals. All solvents, reagents, were from Sigma-Aldrich Srl (Milan, Italy). Dodecane was purchased from Fluka (Milan, Italy). Pooled Male Donors 20 mg mL-1 HLM were from BD Gentest-Biosciences (San Jose, California). Milli-Q quality water (Millipore, Milford, MA, USA) was used. Hydrophobic filter plates (MultiScreen-IP, Clear Plates, 0.45 μm diameter pore size), 96-well microplates, and 96-well UV-transparent microplates were obtained from Millipore (Bedford, MA, USA). […]
Parallel Artificial Membrane Permeability Assay (PAMPA):
Donor solution (0.5 mM) was prepared by diluting 1 mM dimethylsulfoxide (DMSO) compound stock solution using phosphate buffer (pH 7.4, 0.025 M). Filters were coated with 5 μL of a 1% (w/v) dodecane solution of phosphatidylcholine prepared from CHCl3 solution 10% w/v, for intestinal permeability. Donor solution (150 μL) was added to each well of the filter plate. To each well of the acceptor plate were added 300 μL of solution (50% DMSO in phosphate buffer). All compounds were tested in three different plates on different days. The sandwich was incubated for 5 h at room temperature under gentle shaking. After the incubation time, the plates were separated, and samples were taken from both receiver and donor sides and analyzed using LC with UV detection at 280 nm.
LC analysis were performed with a Varian Prostar HPLC system (Varian Analytical Instruments, USA) equipped with a binary pump with a manual injection valve and model Prostar 325 UV-VIS Detector.
Chromatographic separation were conducted using a Polaris C18-A column (150-4.6 mm, 5 μm particle size) at a flow rate of 0.8 mL min-1 with a mobile phase composed of 60% ACN/40% H2O.
Permeability (Papp) for PAMPA was calculated according to the following equation, obtained from Wohnsland and Faller and Sugano et al. equation with some modification in order to obtain permeability […]
where VA is the volume in the acceptor well, VD is the volume in the donor well (cm3), A is the “effective area” of the membrane (cm2), t is the incubation time (s) and r the ratio between drug concentration in the acceptor and equilibrium concentration of the drug in the total volume (VD+VA). Drug concentration is estimated by using the peak area integration.
Membrane retentions (%) were calculated according to the following equation: […]
where r is the ratio between drug concentration in the acceptor and equilibrium concentration, D, A, and Eq represented drug concentration in the donor, acceptor and equilibrium solution, respectively. […]
15 min. The flow rate was 0.2 mL min-1 and injection volume was 5 μL. The instrument operated in positive mode and parameters were: detector 1850 V, drying gas pressure 25.0 psi, desolvation temperature 300.0 °C, nebulizing gas 40.0 psi, needle 5000 V and shield 600 V. Nitrogen was used as nebulizer gas and drying gas.
Collision induced dissociation was performed using Argon as the collision gas at a pressure of 1.8 mTorr in […]
(§2) Microsomal Stability Assay.
(§3) Each compound in DMSO solution was incubated at 37 °C for 60 min in 125 mM phosphate buffer (pH 7.4), 5 μL of human liver microsomal protein (0.2 mg mL-1), in the presence of a NADPH-generating system at a final […]
reaction was stopped by cooling on ice and adding 1.0 mL of acetonitrile. The reaction mixtures were then centrifuged, and the parent drug and metabolites were subsequently determined by LC-UV-MS. […]

[2] = Human liver microsomal metabolic stability; type: in vitro ADME; conditions: 37 °C, 60 min
Protocol: as §1, with “Information). […]” for “Information).”
as §2, §3
reaction was stopped by cooling on ice and adding 1.0 mL of acetonitrile. The reaction mixtures were then centrifuged, and the parent drug and metabolites were subsequently determined by LC-UV-MS.
Chromatographic analysis was performed with an Agilent 1100 LC/MSD VL system (G1946C) (Agilent Technologies, Palo Alto, CA) constituted by a vacuum solvent degassing unit, a binary high-pressure gradient pump, an 1100 series UV detector, and an 1100 MSD model VL benchtop mass spectrometer.
Chromatographic separation was obtained using a Varian Polaris C18-A column (150-4.6 mm, 5 μm particle size) and gradient elution: eluent A being ACN and eluent B consisting of water. The analysis started with 2% […]
flow rate was 0.8 mL min-1 and injection volume was 20 μL.
The Agilent 1100 series mass spectra detection (MSD) single-quadrupole instrument was equipped with the orthogonal spray API-ES (Agilent Technologies, Palo Alto, CA). Nitrogen was used as nebulizing and drying gas. The pressure of the nebulizing gas, the flow of the drying gas, the capillary voltage, the fragmentor voltage, and the vaporization temperature were set at 40 psi, 9 L/min, 3000 V, 70 V, and 350 °C, respectively.
UV detection was monitored at 280 nm. The LC-ESI-MS determination was performed by operating the MSD in the positive ion mode. Spectra were acquired over the scan range m/z 100-1500 using a step size of 0.1 u.
The percentage of not metabolized compound was calculated by comparison with reference solutions

CCCCc1cn(-c2ccc(NC(=O)Nc3ccccc3C)cc2)nn1 [Compound 1, reference compound]
AppP (apparent permeability) [1]: 2.86 ×10⁻⁶ cm/s | Memb. Ret. % (membrane retention) [1]: 19.1% | HLM Stability ± SD (Human Liver Microsomal Metabolic Stability) [2]: 99.0 ± 0.6%

CC(C)CCc1cn(-c2ccc(NC(=O)Nc3cccc4cnccc34)cn2)nn1 [Compound 10, 1-(6-(4-Isopentyl-1H-1,2,3-triazol-1-yl)pyridin-3-yl)-3-(isoquinolin-5-yl)urea]
Memb. Ret. % (membrane retention) [1]: 11.3% | Papp at 5 h, 0.5 mM [1]: 1.21 ×10⁻⁶ cm/s | HLM Stability ± SD (Human Liver Microsomal Metabolic Stability) [2]: 91.31 ± 0.1%

CCCCc1nnc(-c2ccc(NC(=O)Nc3ccccc3C(F)(F)F)cc2)o1 [Compound 3, 1-(4-(5-Butyl-1,3,4-oxadiazol-2-yl)phenyl)-3-(2-(trifluoromethyl)phenyl)urea]
AppP (apparent permeability) [1]: good values of passive permeability | Memb. Ret. % (membrane retention) [1]: 10.3% | Papp at 5 h, 0.5 mM [1]: 9.75 ×10⁻⁶ cm/s | HLM Stability ± SD (Human Liver Microsomal Metabolic Stability) [2]: 88.9 ± 0.9%

CCCCc1cn(-c2ccc(NC(=O)Nc3ccccc3C(F)(F)F)cc2)nn1 [BA103, 1-(4-(4-Butyl-1H-1,2,3-triazol-1-yl)phenyl)-3-(2-(trifluoromethyl)phenyl)urea]
AppP (apparent permeability) [1]: good values of passive permeability | Memb. Ret. % (membrane retention) [1]: 23.9% | Papp at 5 h, 0.5 mM [1]: 7.47 ×10⁻⁶ cm/s | HLM Stability ± SD (Human Liver Microsomal Metabolic Stability) [2]: 97.0 ± 0.5%

CCCCc1nnc(-c2ccc(NC(=O)Nc3ccccc3C(F)(F)F)cc2)[nH]1 [Compound 4, 1-(4-(5-Butyl-4H-1,2,4-triazol-3-yl)phenyl)-3-(2-(trifluoromethyl)phenyl)urea]
AppP (apparent permeability) [1]: very low passive permeability | Memb. Ret. % (membrane retention) [1]: 2.3% | Papp at 5 h, 0.5 mM [1]: < 0.1 ×10⁻⁶ cm/s | HLM Stability ± SD (Human Liver Microsomal Metabolic Stability) [2]: 97.9 ± 0.3%

CCCCn1nnc(-c2ccc(NC(=O)Nc3ccccc3C(F)(F)F)cc2)n1 [Compound 6, 1-(4-(2-Butyl-2H-tetrazol-5-yl)phenyl)-3-(2-(trifluoromethyl)phenyl)urea]
AppP (apparent permeability) [1]: good values of passive permeability | Memb. Ret. % (membrane retention) [1]: 21.6% | Papp at 5 h, 0.5 mM [1]: 10.2 ×10⁻⁶ cm/s | HLM Stability ± SD (Human Liver Microsomal Metabolic Stability) [2]: 90.32 ± 0.7%
